Patent US20250161478A1, “LINKER PAYLOADS AND CONJUGATES THEREOF” (priority 2021, published 2025)
Read-outs that look alike come from different tables or passages of the source.

Assays:
[1] = system: B16-F10 mouse melanoma tumors; test: In vivo efficacy of PNU-ADCs in B16-F10 mouse melanoma model (Example 31); set-up: species or system mice
Protocol: In vivo anti-tumor efficacy of anti-TYRP1 ADCs (TAPeD, FLPeD, CHPeD and FLCPeMg) was evaluated in the B16-F10 mouse melanoma model as described above. […] Tumor growth was followed by palpation, and ADC dosings were administered when tumor sizes reached 60-110 mm^3, between 2-7 days after the inoculation. […] A single i.v. injection of 5 mg/kg ADC in PBS was given on the injection day and the tumor sizes were followed for at least 28 days. […] Another xenograft experiment was performed similarly as above. In this experiment, 10 xenografted mice received no treatment, while 10 xenografted mice were given three i.v. doses of 10 mg/kg TA99 antibody on days 2, 7 and 12 after the inoculation (3×10 mg/kg at 5 day intervals). In every one of these 20 mice the tumors grew to >200 mm^3 during 28 days' follow-up period.

[2] = In vivo tolerability of PNU-ADCs in normal mice; set-up: species or system C57BL/6J mice; conditions: for Dose-limiting toxicity dose level / MTD (maximum tolerated dose): single i.v. dose; for Dose-limiting toxicity dose level: n=3, followed up to 30 days; for MTD (maximum tolerated dose): n=3, next lower dose below the dose-limiting toxicity dose level
Protocol: Tolerability and safety of ADCs conjugated with PNU-EDA linker-payloads were tested in normal C57BL/6J mice. Female young adult mice at the age of 8-10 weeks were used, 3 mice/group (n=3). […] Clinical signs, body weight and general behavior of the animals were observed regularly. Dose-limiting toxicity was observed as either over 10% reduction of average body weight in the group or acute toxicity in any animal in the group. Maximum tolerated dose (MTD) was determined as the next lower dose below the dose-limiting toxicity dose level. ADCs were prepared as described above and a single i.v. dose of the ADC was given on the first day of the study. The mice were followed for up to 30 days if no dose-limiting toxicity was observed.

[3] = system: IGR-1 human melanoma cells; test: Cytotoxicity of ADCs, PrestoBlue cell viability, IGR-1 cells; format: cell-based
Protocol: (§1) Toxicity of anti-TYRP ADCs was tested with SK-MEL-28 (ATCC: HTB®-72™) SK-MEL-30 (DSMZ: ACC 151) and/or IGR-1 (DSMZ: ACC 236) human melanoma cells.
IGR-1 cells were seeded in 96-well plate, 2000 cells/well, and cultivated in 10% FBS/DMEM-medium under standard cell culture conditions. After overnight culture, the diluted ADCs or unconjugated antibodies (concentration range 0.1 nM-300 nM) were added to cells, and incubated for 3-5 days. The viability of the cells was evaluated with PrestoBlue cell viability reagent.
(§2) The AVG % values and standard deviations were transferred to GraphPad Prism 9.1.2.

[4] = system: SK-MEL-30 human melanoma cells; test: Cytotoxicity of ADCs, PrestoBlue cell viability, SK-MEL-30 cells; format: cell-based; conditions: incubated 3-5 days, ranges are over n experiments
Protocol: as §1
SK-MEL-30 were seeded in 96-well plate, 2000 cells/well or 3000 cells/well and cultivated in 10% FBS/RPMI 1640-medium under standard cell culture conditions. After overnight culture, diluted ADCs or antibodies were added to the cells, and incubated for 3-5 days. For cell control, the cells were treated with medium without ADC. The viability of the cells was evaluated with PrestoBlue cell viability reagent.
as §2

[5] = system: B16-F10 mouse melanoma tumors; test: In vivo efficacy in B16-F10 syngeneic tumor mice (Example 9); set-up: species or system C57BL/6J mice; conditions: single i.v. 5 mg/kg two days after inoculation, six mice/group
Text: In vivo anti-tumor efficacy of ADC of monoclonal TA99 IgG2a antibody, glycoconjugated TA99 ADC with DBCO-Val-Ser(GlcA)-EDA-PNU payloads (TA99-PNU ADC, DAR=2) and TA99 ADC with maleimidoacetyl-EDA-PNU payloads (TA99-M-PNU ADC, DAR=4), prepared and maleimide-stabilized as described above, was compared to non-treated mice. B16-F10 mouse melanoma cells were obtained from the ATCC (USA) and cultured according to the manufacturer's instructions to study efficacy of antibody-drug conjugates in highly treatment-resistant syngeneic tumors in female adult C57BL/6J mice at the age of about 8-weeks. […] Tumor growth was followed by palpation. […] The first dosings were administered two days after the inoculation due to the high take rate and very rapid growth of the tumors. Mice were randomly divided into study groups. […] Unconjugated antibody (TA99/anti-gp75, Invivogen) was used in this study as the control treatment.

[6] = system: HL-60 acute myeloid leukemia (AML) cell xenograft tumors; test: In vivo efficacy of anti-CD33 ADCs in HL-60 leukemia xenograft; conditions: single i.v. 10 mg/kg
Protocol: In vivo anti-leukemia xenograft efficacy was evaluated for anti-CD33 ADCs LNAuM (DAR=8.0) and GMAuM (DAR=8.0), as well as anti-CD33 antibodies LN and GM. HL-60 acute myeloid leukemia (AML) cells were obtained from the ATCC and cultured according to the manufacturer's instructions. The study was performed at the TCDM/Central Animal Laboratory, University of Turku, Finland, according to the appropriate ethical committee approval. Cells for inoculation to mice were prepared in vigorous exponential growth phase. 2 million cells in 50% Matrigel were inoculated s.c. to the flank of each mouse (female athymic nude mice between 8-10 weeks of age). Clinical signs and general behavior of the animals was observed regularly. […] Tumor growth was followed by palpation. After caliper measurement, tumor volume was calculated according to 0.5×length×width^2. The first dosings were administered when average tumor volume reached 100 mm^3. […] Intravenous (i.v.) treatment of 10 mg/kg either antibody or ADC in PBS was given once (single dose regimen), while the control group received no treatment.

[7] = ADC concentration in serum by ELISA (systemic exposure); format: in vivo, mice; conditions: trapezoidal method, 10 mg/kg i.v.
Protocol: Serum samples (from 40 μl blood) were taken from each mouse in the treatment groups as well as two mice in the control group to follow systemic exposure of the compounds on day 1, day 5 and day 9 after dosing. ADC concentrations in the serum samples were analyzed by ELISA using FastELISA Human immunoglobulin quantification kit (RD-Biotech) according to the manufacturer's instructions. Between 1 d-9 d, LNAuM had better systemic exposure than GMAuM and GMAuM was eliminated faster from circulation by Day 9 than LNAuM.

[8] = system: Ramos.2G6.4C10 (no CD33 expression) cells; test: Cytotoxicity of anti-CD33 ADCs in Ramos cells; format: cell-based
Text: as §2

KG-1 cells = test: Cytotoxicity of anti-CD33 ADCs in KG-1 cells; format: cell-based; conditions: for IC50: KG-1 cells treated for 3 or 4 days, n = 3
Text: as §2

[9] = system: Daudi (no CD33 expression) cells; test: Cytotoxicity of anti-CD33 ADCs in Daudi cells; format: cell-based
Text: as §2

HL-60 cells = test: Cytotoxicity of anti-CD33 ADCs in HL-60 cells; format: cell-based; conditions: HL-60 cells treated for 5 days
Text: as §2

K-562 (low CD33) cells = test: Cytotoxicity of anti-CD33 ADCs in K-562 cells; format: cell-based; conditions: K-562 (low CD33) cells treated for 3 days
Text: as §2

[10] = system: CD33- cell lines Ramos and Daudi versus CD33+ cells; test: In vitro therapeutic window, CD33- versus CD33+ cell lines; format: cell-based; conditions: IC50 not reached at 300 nM in Ramos and Daudi versus CD33+ cells
MOLM-13 cells = test: Cytotoxicity of anti-CD33 ADCs in MOLM-13 cells; format: cell-based; conditions: MOLM-13 cells treated for 3 days
Text: as §2

[11] = single 5 mg/kg i.v. dose on days 2-7 when tumors reach 60-110 mm^3, 6 mice/group, at least 28 days
[12] = 5 mice/group, 30 days follow-up

In the case of “Chimeric TA99-DBCO-Val-Ser(G1cA)-EDA-PNU [CHPeD]”, the “Number of mice with <200 mm^3 tumor at end of study” value (“Number of mice with <200 mm^3 tumor” for short) [1, 11] is reported as 2.
With “FLCPeMa: cysteine engineered flanvotumab HC N299C conjugated with PeMa (MA-Ac-EDA-PNU), DAR 1.7” the “Dose-limiting toxicity dose level” value [2] was 20 mg/kg and the “MTD (maximum tolerated dose)” value [2] was 15 mg/kg.
For “FLCPeMala: cysteine engineered flanvotumab HC N299C conjugated with PeMala (MA-Ac-β-Ala-EDA-PNU), DAR 2.0”, the “IC50 values against IGR-1 cells (in words)” value (shortened to “IC50 values”) [3] was “picomolar” and the “MTD (maximum tolerated dose)” value [2] was 5 mg/kg.
In the case of “FLCPeMg: cysteine engineered flanvotumab HC N299C conjugated with PeMg (MA-Ac-β-Ala-VS(GlcA)-EDA-PNU), DAR 2.2”, the “Number of mice with <200 mm^3 tumor” value [1, 11] is reported as 2, the “IC50 values” value [3] is reported as “picomolar” and the “Dose-limiting toxicity dose level” value [2] is reported as 12.5 mg/kg.
With “Flanvotumab-DBCO-Val-Ser(GlcA)-EDA-PNU [FLPeD]” the IC50 [4] was 1.3 to 8.2 nM, the “Number of mice with <200 mm^3 tumor” value [1, 11] was 2 and the “IC50 values” value [3] was “picomolar”. The “Dose-limiting toxicity dose level” value [2] was 15 mg/kg and the “MTD (maximum tolerated dose)” value [2] was 10 mg/kg.
With TA99 the “Number of mice with <200 mm^3 tumor” value ([1]; 3 × 10 mg/kg i.v. on days 2, 7 and 12 after inoculation, 10 mice/group, 28 days) was 0, the “tumor growth (in words)” value [5] was “tumors grew rapidly” and the “toxicity (in words)” value ([2]; 20 mg/kg or 30 mg/kg) was “No toxicity was observed”.
For gemtuzumab, the “tumor growth (in words)” value [6, 12] was “tumors grew fast”.
For “gemtuzumab-maleimidoacetyl-β-Ala-Val-Ser(Glc)-PAB-MMAU [GMAuM]”, the “toxicity (in words)” value [6] was “no toxicity was detected”, the “mice in which tumors disappeared without regrowth” value [6, 12] was 5/5 and the “AUC(1-9 d), partial area under curve between 1 d-9 d” value [7] was 160 mg·days/L.
For lintuzumab, the “Unconjugated antibody: no effect up to (highest concentration tested)” value (shortened to “Unconjugated antibody: no effect up”) ([8]; Ramos cells) was over 300 nM, the “Unconjugated antibody: no effect up” value (KG-1 cells; KG-1 cells) was over 300 nM and the “duration of tumor growth inhibition” value ([6]; 5 mice/group) was “about 20 days”. For the same substance, the “Unconjugated antibody: no effect up” value [9] was over 300 nM.
With “lintuzumab-maleimidoacetyl-β-Ala-Val-Ser(Glc)-PAB-MMAU [LNAuM]” the IC50 ([8]; Ramos.2G6.4C10 cells, no CD33 expression) was over 300 nM, the IC50 (KG-1 cells; read-out: IC50) was 0.144 to 0.313 nM and the IC50 (KG-1 cells; read-out: IC50 (AVG ± standard deviation)) was 0.242 ± 0.088 nM. The “toxicity (in words)” value [6] was “no toxicity was detected”, the “mice in which tumors disappeared without regrowth” value [6, 12] was 5/5 and the IC50 ([9]; no CD33 expression, treated for 3 days) was over 300 nM. The IC50 (HL-60 cells; n = 4, read-out: IC50 (AVG ± standard deviation)) was 0.272 ± 0.181 nM, the IC50 (HL-60 cells; range over n experiments, read-out: IC50) was 0.024 to 0.459 nM and the “AUC(1-9 d), partial area under curve between 1 d-9 d” value [7] was 200 mg·days/L. The IC50 (K-562 (low CD33) cells) was 24 to 66 nM, the “in vitro therapeutic window” value [10] was “greater than 10000” and the IC50 (MOLM-13 cells; n = 3, read-out: IC50 (AVG ± standard deviation)) was 0.039 ± 0.016 nM. It also gave an IC50 (MOLM-13 cells; read-out: IC50) of 0.023 to 0.055 nM.
